What was measured:
TYK2 Pseudokinase (JH2) [1] = target: T1, TYK2 Pseudokinase (JH2) (Homo sapiens, UniProt P29597); assay: HEK-Blue IL-23 reporter assay (STAT3-inducible SEAP) for profiling TYK2 pseudokinase (JH2) inhibition; assay type: cell-based; settings: HEK-Blue IL-23 cells, 10 ng/mL human recombinant IL-23, SEAP readout; read-out: IL23
T1 construct: HEK-Blue™ IL-23 and IFNα/0 cells with a stably-integrated cytokine receptor and STAT3 or STAT1; endogenous in cells; host or cells: HEK-Blue IL-23 and HEK-Blue IFNα/β reporter cells
Description: (§1) HEK-Blue™ IL-23 and IFNα/0 cells with a stably-integrated cytokine receptor and STAT3 or STAT1 express STAT-inducible secreted embryonic alkaline phosphatase (SEAP) reporter gene upon cytokine stimulation. These cells are plated in DMEM (Gibco) containing 10% heat-inactivated FBS (Gibco) and 100 U/mL PenStrep (Gibco) at 37° C. under 5% CO2 conditions for 20-22 hours. The cells are then pretreated with serially diluted test compounds for 60 min prior to stimulation with either 10 ng/mL human recombinant IL-23 (Miltenyl Biotech) or 1 ng/mL human recombinant IFNα (InvivoGen) for 22-24 hours for IL-23 or 16-18 h for IFNα. SEAP induction is measured using the QUANTI Blue™ Solution (InvivoGen) according to the manufacturer's instructions.

TYK2 Pseudokinase (JH2) [2] = target: T1, TYK2 Pseudokinase (JH2); assay: HEK-Blue IFNα/β reporter assay (STAT1-inducible SEAP) for profiling TYK2 pseudokinase (JH2) inhibition; assay type: cell-based; settings: HEK-Blue IFNα/β cells, 1 ng/mL human recombinant IFNα, SEAP readout
Description: as §1

IL-2 = assay: HEK-Blue IL-2 reporter assay (STAT5-inducible SEAP) for determining selectivity; assay type: cell-based; settings: HEK-Blue IL-2 reporter cells, 4 ng/mL human recombinant IL-2, SEAP readout
Description: (§2) HEK-Blue™ IL-2 and IFNγ reporter cells with a stably-integrated cytokine receptor and STAT5 or STAT1 express STAT-inducible secreted embryonic alkaline phosphatase (SEAP) reporter gene upon cytokine stimulation. These cells were plated in DMEM (Gibco) containing 10% heat-inactivated FBS (Gibco) and 100 U/mL PenStrep (Gibco) at 37° C. under 5% CO2 conditions for 20-22 hours. The cells were then pretreated with serially diluted test compounds for 60 min prior to stimulation with either 4 ng/mL human recombinant TL-2 (Miltenyl Biotech) or 50 ng/mL human recombinant IFNγ (InvivoGen) for 24 hours. SEAP induction was measured using the QUANTI-Blue™ Solution (InvivoGen) according to the manufacturer's instructions.

IFN-γ = assay: HEK-Blue IFNγ reporter assay (STAT1-inducible SEAP) for determining selectivity; assay type: cell-based; settings: HEK-Blue IFNγ reporter cells, 50 ng/mL human recombinant IFNγ, SEAP readout
Description: as §2

JAK1-JH1 = target: T2, JAK1-JH1 (Homo sapiens, UniProt P23458); assay: HTRF-based selectivity assay, JAK1 catalytic domain; assay type: biochemical; settings: kinase domain (JH1), 21.43 μM ATP
T2 construct: recombinant purified His or GST-tagged catalytic domain for each enzyme; made in house
Description: The ability of compounds to inhibit the activity of JAK1, JAK2, JAK3 and TYK2 is measured using a recombinant purified His or GST-tagged catalytic domain for each enzyme (JAK1, JAK2 and TYK2 are generated in-house; JAK3 was purchased from Carna biosciences, Cat #08-046) in an HTRF format biochemical assay. The reactions employs a commercial peptide substrate from Cisbio (Cat #62TK0PEC). The basic assay protocol is as follows: first, 2.5 μL of diluted compounds (4×) in DMSO are dispensed into a 384-well Optiplate. Next, 2.5 μL of enzyme (final concentrations for enzymes are: TYK2- 700 ng/mL, JAK1- 80.6 ng/mL, JAK2- 2.1 ng/mL and JAK3- 171.8 ng/mL) is added and incubated at RT for 5-20 min. Finally, 5 μl of mixture of 2×ATP [Final concentration 20 μM for TYK2, 21.43 μM for JAK1, 14.7 μM for JAK2 and 2.12 μM for JAK3]^+2× Substrate [Final concentration 217 nM for TYK2, 454.7 nM for JAK1, 200 nM for JAK2 and 257.4 nM for JAK3] is added to 384 well Optiplate. Composition of Kinase assay buffer used in the assay is as follows: HEPES 50 mM, EGTA 1 mM, MgCl2 10 mM, DTT 2 mM, Tween-20 0.01% and water. Then the plates are shaken and then incubated at 26.5° C. for 60 min.

T1 sequence (P29597 whole entry): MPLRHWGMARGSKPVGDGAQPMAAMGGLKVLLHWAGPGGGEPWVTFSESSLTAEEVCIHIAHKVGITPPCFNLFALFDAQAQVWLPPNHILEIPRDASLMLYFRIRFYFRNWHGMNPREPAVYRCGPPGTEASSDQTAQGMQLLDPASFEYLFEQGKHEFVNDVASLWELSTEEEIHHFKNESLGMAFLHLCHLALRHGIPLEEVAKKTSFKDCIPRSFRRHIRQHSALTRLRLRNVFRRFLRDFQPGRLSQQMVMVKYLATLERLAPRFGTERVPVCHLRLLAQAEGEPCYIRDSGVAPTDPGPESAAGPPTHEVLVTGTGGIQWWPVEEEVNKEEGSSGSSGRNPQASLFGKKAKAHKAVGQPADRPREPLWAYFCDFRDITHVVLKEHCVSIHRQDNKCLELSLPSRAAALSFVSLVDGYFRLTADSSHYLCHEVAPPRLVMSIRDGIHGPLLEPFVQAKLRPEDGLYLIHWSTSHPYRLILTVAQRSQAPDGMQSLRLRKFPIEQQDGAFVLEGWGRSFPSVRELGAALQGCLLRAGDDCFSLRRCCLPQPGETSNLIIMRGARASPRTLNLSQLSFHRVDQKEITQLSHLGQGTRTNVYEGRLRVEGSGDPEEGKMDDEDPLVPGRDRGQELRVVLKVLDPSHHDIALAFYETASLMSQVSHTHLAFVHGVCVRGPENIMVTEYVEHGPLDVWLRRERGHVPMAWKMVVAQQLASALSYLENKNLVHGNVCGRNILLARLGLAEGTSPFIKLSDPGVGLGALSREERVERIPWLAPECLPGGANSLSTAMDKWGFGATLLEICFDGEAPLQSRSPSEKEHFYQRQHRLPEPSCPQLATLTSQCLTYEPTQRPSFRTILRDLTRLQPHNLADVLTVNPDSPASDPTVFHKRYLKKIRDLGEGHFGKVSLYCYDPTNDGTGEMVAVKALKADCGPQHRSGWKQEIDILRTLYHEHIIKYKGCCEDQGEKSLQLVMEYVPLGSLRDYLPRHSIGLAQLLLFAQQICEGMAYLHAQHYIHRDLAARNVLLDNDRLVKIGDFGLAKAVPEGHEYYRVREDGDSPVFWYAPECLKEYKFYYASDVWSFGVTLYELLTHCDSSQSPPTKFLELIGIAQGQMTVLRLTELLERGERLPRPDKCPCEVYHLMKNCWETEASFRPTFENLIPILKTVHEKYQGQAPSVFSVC
T2 sequence (P23458 875-1153 limits assumed): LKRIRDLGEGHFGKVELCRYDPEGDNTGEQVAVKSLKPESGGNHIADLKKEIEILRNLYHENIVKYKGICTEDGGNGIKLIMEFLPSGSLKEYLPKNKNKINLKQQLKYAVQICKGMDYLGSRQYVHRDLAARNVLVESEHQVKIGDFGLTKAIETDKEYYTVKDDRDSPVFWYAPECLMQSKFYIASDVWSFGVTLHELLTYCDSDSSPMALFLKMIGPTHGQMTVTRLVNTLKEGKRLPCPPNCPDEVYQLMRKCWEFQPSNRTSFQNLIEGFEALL

IC50 (TYK2 Pseudokinase (JH2) [1]) | IC50 (TYK2 Pseudokinase (JH2) [2]) | IC50 (IL-2) | IC50 (IFN-γ) | IC50 (JAK1-JH1) | SMILES
> 1000 nM | > 1000 nM | – | – | – | CNC(=O)c1cnc2[nH]ccc2c1Nc1cccc2c1N(C)CCn1cnnc1-2 [Compound 6, N-methyl-4-((7-methyl-6,7-dihydro-5H-benzo[f][1,2,4]triazolo[4,3-d][1,4]diazepin-8-yl)amino)-1H-pyrrolo[2,3-b]pyridine-5-carboxamide]
> 1000 nM | > 1000 nM | – | – | – | [2H]C([2H])([2H])NC(=O)c1c(Nc2cccc3c2N(C)[C@@H](C)c2nc(C)nn2-3)cc(NC(=O)C2CC2)nc1N [Compound 4, (S)-2-amino-6-(cyclopropanecarboxamido)-N-(methyl-d3)-4-((2,4,5-trimethyl-4,5-dihydro-[1,2,4]triazolo[1,5-a]quinoxalin-6-yl)amino)nicotinamide]
< 30 nM | < 30 nM | – | – | – | CCONC(=O)c1nnc(Nc2ccc(F)cn2)cc1Nc1cccc2c1N(C)[C@@H](C)c1nc(C)nn1-2 [Compound 15, (S)—N-ethoxy-6-((5-fluoropyridin-2-yl)amino)-4-((2,4,5-trimethyl-4,5-dihydro-[1,2,4]triazolo[1,5-a]quinoxalin-6-yl)amino)pyridazine-3-carboxamide]
< 30 nM | < 30 nM | – | – | – | CCONC(=O)c1nnc(NC(=O)C2CC2)cc1Nc1nccc2c1N(C)[C@@H](C)c1nn(C)nc1-2 (single isomer, unassigned) [Compound 16]
< 30 nM | < 30 nM | – | – | – | CONC(=O)c1nnc(Nc2cc(C)nc(C)n2)cc1Nc1cccc2c1N(C)[C@@H](C)c1nc(C)nn1-2 [Compound 12, (S)-6-((2,6-dimethylpyrimidin-4-yl)amino)-N-methoxy-4-((2,4,5-trimethyl-4,5-dihydro-[1,2,4]triazolo[1,5-a]quinoxalin-6-yl)amino)pyridazine-3-carboxamide]
< 30 nM | 30 to 300 nM | > 1000 nM | > 1000 nM | – | Cc1nc2n(n1)-c1cccc(Nc3cc(NC(=O)C4CC4)nc4[nH]n(C)c(=O)c34)c1N(C)[C@H]2C [Compound 3, (S)—N-(2-methyl-3-oxo-4-((2,4,5-trimethyl-4,5-dihydro-[1,2,4]triazolo[1,5-a]quinoxalin-6-yl)amino)-2,3-dihydro-1H-pyrazolo[3,4-b]pyridin-6-yl)cyclopropanecarboxamide]
< 30 nM | 30 to 300 nM | – | – | – | CONC(=O)c1nnc(NC(=O)C2CC2)cc1Nc1cccc2c1N(C)[C@@H](C)c1nc(C)nn1-2 [Compound 10, (S)-6-(cyclopropanecarboxamido)-N-methoxy-4-((2,4,5-trimethyl-4,5-dihydro-[1,2,4]triazolo[1,5-a]quinoxalin-6-yl)amino)pyridazine-3-carboxamide]
< 30 nM | 30 to 300 nM | – | – | – | CONC(=O)c1cnc(NC(=O)C2CC2)cc1Nc1cccc2c1N(C)[C@@H](C)c1nc(C)nn1-2 [Compound 8, (S)-6-(cyclopropanecarboxamido)-N-methoxy-4-((2,4,5-trimethyl-4,5-dihydro-[1,2,4]triazolo[1,5-a]quinoxalin-6-yl)amino)nicotinamide]
< 30 nM | < 30 nM | – | – | – | CONC(=O)c1nnc(Nc2ccc(F)cn2)cc1Nc1cccc2c1N(C)[C@@H](C)c1nc(C)nn1-2 [Compound 11, (S)-6-((5-fluoropyridin-2-yl)amino)-N-methoxy-4-((2,4,5-trimethyl-4,5-dihydro-[1,2,4]triazolo[1,5-a]quinoxalin-6-yl)amino)pyridazine-3-carboxamide]
< 30 nM | < 30 nM | – | – | > 1000 nM | CN1Cc2cn(C)nc2-c2cccc(Nc3cc(NC(=O)C4CC4)nc4[nH]n(C)c(=O)c34)c21 [Compound 2, N-(4-((2,5-dimethyl-4,5-dihydro-2H-pyrazolo[4,3-c]quinolin-6-yl)amino)-2-methyl-3-oxo-2,3-dihydro-1H-pyrazolo[3,4-b]pyridin-6-yl)cyclopropanecarboxamide]
< 30 nM | < 30 nM | – | – | – | CCONC(=O)c1nnc(Nc2cc(C)nc(C)n2)cc1Nc1cccc2c1N(C)[C@@H](C)c1nc(C)nn1-2 [Compound 14, (S)-6-((2,6-dimethylpyrimidin-4-yl)amino)-N-ethoxy-4-((2,4,5-trimethyl-4,5-dihydro-[1,2,4]triazolo[1,5-a]quinoxalin-6-yl)amino)pyridazine-3-carboxamide]
> 1000 nM | > 1000 nM | – | – | – | CNC(=O)c1cnc2[nH]ccc2c1Nc1cccc2c1N(C)Cc1cn(C)nc1-2 [Compound 7, 4-((2,5-dimethyl-4,5-dihydro-2H-pyrazolo[4,3-c]quinolin-6-yl)amino)-N-methyl-1H-pyrrolo[2,3-b]pyridine-5-carboxamide]
< 30 nM | 30 to 300 nM | – | – | – | CCONC(=O)c1nnc(NC(=O)C2CC2)cc1Nc1cccc2c1N(C)[C@@H](C)c1nc(C)nn1-2 [Compound 13, (S)-6-(cyclopropanecarboxamido)-N-ethoxy-4-((2,4,5-trimethyl-4,5-dihydro-[1,2,4]triazolo[1,5-a]quinoxalin-6-yl)amino)pyridazine-3-carboxamide]
300 to 1000 nM | – | – | – | > 1000 nM | Cn1cc2c(n1)-c1cccc(Nc3cc(NC(=O)C4CC4)nc4[nH]n(C)c(=O)c34)c1OC2 [Compound 1, N-(2-methyl-4-((2-methyl-2,4-dihydrochromeno[4,3-c]pyrazol-6-yl)amino)-3-oxo-2,3-dihydro-1H-pyrazolo[3,4-b]pyridin-6-yl)cyclopropanecarboxamide]
< 30 nM | < 30 nM | – | – | – | CCONC(=O)c1cnc(NC(=O)C2CC2)cc1Nc1cccc2c1N(C)[C@@H](C)c1nc(C)nn1-2 [Compound 9, (S)-6-(cyclopropanecarboxamido)-N-ethoxy-4-((2,4,5-trimethyl-4,5-dihydro-[1,2,4]triazolo[1,5-a]quinoxalin-6-yl)amino)nicotinamide]
